Experimental data from ChEMBL document CHEMBL1201862, “PubChem BioAssay data set” (2004).
Blank lines part the entries; values can stand above or below the compound they belong to. Activity calls are given as the source filed them. Unless noted, the rule behind the calls is not given here.

What was measured:
[1] = viability loss of HMLE_sh_eGFP cells – cell-based, luminescence, counter-screen for HMLE_sh_ECad selective toxicity project, dose response (AID 463074); type: functional, Homo sapiens;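 also: HMLE human mammary epithelial cells expressing control shRNA against eGFP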
[2] = Luminescence Cell-Based Dose Retest to Confirm Inhibitors of Cancer Stem Cells. [Related pubchem assays (depositor defined):AID2717, AID2721]; type: functional; settings: Homo sapiens
HeLa = assay: ATP-based viability loss in HeLa cells – cell-based, CellTiter-Glo luminescence, cherry-pick samples, cytotoxicity control for MITF activator project, dose response (AID 540259); type: functional; settings: Homo sapiens
Beta-arrestin-1 = Beta-arrestin-1 (Homo sapiens, UniProt P49407); assay: beta-arrestin/AP2 interaction blockers, potency – biochemical, cherry pick 1, beta2-adaptin appendage, flow cytometry, dose response (AID 588783); type: functional
Sequence of Beta-arrestin-1 (P49407 whole entry): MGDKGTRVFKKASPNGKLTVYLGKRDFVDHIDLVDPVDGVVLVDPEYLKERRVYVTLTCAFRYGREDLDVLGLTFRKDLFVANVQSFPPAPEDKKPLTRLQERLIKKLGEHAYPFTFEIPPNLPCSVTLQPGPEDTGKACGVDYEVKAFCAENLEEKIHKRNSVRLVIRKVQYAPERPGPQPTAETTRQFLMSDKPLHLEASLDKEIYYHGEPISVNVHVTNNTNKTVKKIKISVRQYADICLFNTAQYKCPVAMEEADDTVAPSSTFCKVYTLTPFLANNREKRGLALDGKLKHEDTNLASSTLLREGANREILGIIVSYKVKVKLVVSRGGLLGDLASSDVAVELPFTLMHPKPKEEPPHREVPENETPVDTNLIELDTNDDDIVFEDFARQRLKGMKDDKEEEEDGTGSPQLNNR

[3] = molecular target: T1, Potassium voltage-gated channel subfamily KQT member 4 (Homo sapiens, UniProt P56696); assay: activation of KCNQ4 potassium current – automated patch clamp, CHO cells, selectivity assay for KCNQ2 activator project, dose response (AID 493043); type: functional, cell-based
T1 sequence (P56696 whole entry): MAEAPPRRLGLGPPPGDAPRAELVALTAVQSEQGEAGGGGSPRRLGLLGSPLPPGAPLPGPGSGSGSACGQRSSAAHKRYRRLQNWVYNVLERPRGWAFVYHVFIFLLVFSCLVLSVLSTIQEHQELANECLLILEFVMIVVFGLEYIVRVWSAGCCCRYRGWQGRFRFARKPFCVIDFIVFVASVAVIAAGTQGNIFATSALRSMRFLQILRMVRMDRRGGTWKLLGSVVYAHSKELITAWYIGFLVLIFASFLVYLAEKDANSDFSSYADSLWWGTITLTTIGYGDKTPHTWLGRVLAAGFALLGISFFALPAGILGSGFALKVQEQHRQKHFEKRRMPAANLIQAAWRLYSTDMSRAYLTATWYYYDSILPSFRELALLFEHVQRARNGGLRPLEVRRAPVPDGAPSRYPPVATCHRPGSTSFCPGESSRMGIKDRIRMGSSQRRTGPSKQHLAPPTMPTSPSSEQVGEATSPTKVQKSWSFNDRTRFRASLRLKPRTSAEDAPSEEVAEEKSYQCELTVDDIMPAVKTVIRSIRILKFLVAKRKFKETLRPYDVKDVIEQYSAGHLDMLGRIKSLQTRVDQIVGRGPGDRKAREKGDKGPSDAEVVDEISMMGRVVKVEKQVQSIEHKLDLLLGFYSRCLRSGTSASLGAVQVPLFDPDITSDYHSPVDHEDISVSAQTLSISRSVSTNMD

[4] = molecular target: Potassium voltage-gated channel subfamily KQT member 2/member 3 (Rattus norvegicus, UniProt O88943+O88944); assay: Mode of action assay-Dose response assay for KCNQ2 activators in the KCNQ2/KCNQ3 co-expressing cells on automated patch clamp. [Related pubchem assays (depositor defined):AID2239, AID2258, AID2287]; type: functional
Sequence of Potassium voltage-gated channel subfamily KQT member 2/member 3 (O88943 whole entry): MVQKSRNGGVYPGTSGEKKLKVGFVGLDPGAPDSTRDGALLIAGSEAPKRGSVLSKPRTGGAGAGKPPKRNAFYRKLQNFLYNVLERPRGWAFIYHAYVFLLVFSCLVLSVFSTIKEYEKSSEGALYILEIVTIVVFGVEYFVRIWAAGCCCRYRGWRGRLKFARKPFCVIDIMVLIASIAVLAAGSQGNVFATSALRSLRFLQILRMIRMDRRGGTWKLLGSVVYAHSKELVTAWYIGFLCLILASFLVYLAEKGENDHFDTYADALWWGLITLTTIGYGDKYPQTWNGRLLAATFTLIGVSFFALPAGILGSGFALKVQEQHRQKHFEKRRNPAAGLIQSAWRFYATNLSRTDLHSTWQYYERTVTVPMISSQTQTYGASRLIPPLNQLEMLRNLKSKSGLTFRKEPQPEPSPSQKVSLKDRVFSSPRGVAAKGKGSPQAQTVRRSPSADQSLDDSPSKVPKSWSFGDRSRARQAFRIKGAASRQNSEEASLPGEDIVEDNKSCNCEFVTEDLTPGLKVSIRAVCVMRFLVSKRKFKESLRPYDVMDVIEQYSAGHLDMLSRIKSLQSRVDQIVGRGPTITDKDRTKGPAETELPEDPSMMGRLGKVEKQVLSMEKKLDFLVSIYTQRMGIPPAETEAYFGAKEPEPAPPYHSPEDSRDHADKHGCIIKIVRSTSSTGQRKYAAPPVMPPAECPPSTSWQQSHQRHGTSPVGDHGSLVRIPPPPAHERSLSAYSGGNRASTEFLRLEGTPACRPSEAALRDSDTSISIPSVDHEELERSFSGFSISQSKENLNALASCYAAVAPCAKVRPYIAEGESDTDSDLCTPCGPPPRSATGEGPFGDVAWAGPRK
Sequence of Potassium voltage-gated channel subfamily KQT member 2/member 3 (O88944 whole entry): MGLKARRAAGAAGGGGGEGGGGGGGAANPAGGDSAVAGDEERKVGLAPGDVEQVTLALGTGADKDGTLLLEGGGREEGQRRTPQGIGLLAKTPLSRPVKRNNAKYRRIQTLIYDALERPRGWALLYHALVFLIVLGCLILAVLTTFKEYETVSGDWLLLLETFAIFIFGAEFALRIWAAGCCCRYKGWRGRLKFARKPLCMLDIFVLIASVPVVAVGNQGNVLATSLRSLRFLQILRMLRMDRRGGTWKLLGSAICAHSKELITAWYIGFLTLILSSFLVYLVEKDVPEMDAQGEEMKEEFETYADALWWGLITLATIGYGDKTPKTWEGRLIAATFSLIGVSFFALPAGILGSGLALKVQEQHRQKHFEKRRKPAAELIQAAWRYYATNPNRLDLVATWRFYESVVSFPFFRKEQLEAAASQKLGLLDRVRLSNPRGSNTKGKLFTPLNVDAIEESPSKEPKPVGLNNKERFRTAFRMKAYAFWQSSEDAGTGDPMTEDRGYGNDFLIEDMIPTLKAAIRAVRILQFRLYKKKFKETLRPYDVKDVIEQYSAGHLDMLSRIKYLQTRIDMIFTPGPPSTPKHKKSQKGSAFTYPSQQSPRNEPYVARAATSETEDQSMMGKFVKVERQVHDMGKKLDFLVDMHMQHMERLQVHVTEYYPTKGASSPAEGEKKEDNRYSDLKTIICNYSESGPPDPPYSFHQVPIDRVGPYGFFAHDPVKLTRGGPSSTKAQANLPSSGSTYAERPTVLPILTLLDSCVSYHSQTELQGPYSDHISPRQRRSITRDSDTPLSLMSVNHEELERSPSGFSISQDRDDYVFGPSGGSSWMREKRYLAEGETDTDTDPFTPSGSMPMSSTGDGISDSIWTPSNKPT

[5] = molecular target: Potassium voltage-gated channel subfamily KQT member 2 (Rattus norvegicus, UniProt O88943); assay: Mode of action assay-Dose response assay for compounds that activate KCNQ2 potassium channels on automated patch clamp. [Related pubchem assays (depositor defined):AID2239, AID2258, AID2287, AID493113]; type: functional
Sequence of Potassium voltage-gated channel subfamily KQT member 2 (O88943 whole entry): as the sequence (O88943 whole entry) above

[6] = molecular target: T1, Potassium voltage-gated channel subfamily KQT member 4; assay: KCNQ4 thallium flux concentration-response – KCNQ4-expressing cells, selectivity assay for KCNQ2 activator project, dose response (AID 504416); type: functional, cell-based
[7] = molecular target: Beta-2 adrenergic receptor (Homo sapiens, UniProt P07550); assay: ADRB2 activation measured by internalization – cell-based, FAP fluorogen, flow cytometry, cherry pick 1, dose response (AID 588763); type: functional
Sequence of Beta-2 adrenergic receptor (P07550 whole entry): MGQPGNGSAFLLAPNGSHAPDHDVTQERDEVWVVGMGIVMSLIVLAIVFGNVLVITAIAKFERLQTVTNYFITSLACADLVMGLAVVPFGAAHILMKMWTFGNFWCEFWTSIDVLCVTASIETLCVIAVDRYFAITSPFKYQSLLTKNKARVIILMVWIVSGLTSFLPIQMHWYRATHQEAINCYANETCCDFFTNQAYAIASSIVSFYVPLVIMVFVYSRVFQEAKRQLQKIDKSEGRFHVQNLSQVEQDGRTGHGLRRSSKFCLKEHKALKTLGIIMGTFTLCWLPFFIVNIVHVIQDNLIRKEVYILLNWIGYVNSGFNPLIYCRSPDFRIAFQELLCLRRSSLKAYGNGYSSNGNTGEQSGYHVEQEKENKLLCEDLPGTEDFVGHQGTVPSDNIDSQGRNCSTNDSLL

H9c2 = assay: cells; type: functional, cell-based; settings: Rattus norvegicus, H9c2, Myocardium;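 also: confirmatory concentration-response retest of ultra-high-throughput screening hits for modulation of myocardial damage; cell death induced by hydrogen peroxide oxidative stress; compound pretreatment for 60 min then peroxide exposure for 2 h; potency is for protecting the cells against peroxide damage rather than for killing them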
Hexokinase-1 = molecular target: T2, Hexokinase-1 (Homo sapiens, UniProt P19367); assay: SAR analysis of small molecule inhibitors of hexokinase domain containing I (HKDC1) in the hexokinase 1 selectivity assay. [Related pubchem assays (depositor defined):AID493160, AID493190]; type: functional
T2 sequence (P19367 whole entry): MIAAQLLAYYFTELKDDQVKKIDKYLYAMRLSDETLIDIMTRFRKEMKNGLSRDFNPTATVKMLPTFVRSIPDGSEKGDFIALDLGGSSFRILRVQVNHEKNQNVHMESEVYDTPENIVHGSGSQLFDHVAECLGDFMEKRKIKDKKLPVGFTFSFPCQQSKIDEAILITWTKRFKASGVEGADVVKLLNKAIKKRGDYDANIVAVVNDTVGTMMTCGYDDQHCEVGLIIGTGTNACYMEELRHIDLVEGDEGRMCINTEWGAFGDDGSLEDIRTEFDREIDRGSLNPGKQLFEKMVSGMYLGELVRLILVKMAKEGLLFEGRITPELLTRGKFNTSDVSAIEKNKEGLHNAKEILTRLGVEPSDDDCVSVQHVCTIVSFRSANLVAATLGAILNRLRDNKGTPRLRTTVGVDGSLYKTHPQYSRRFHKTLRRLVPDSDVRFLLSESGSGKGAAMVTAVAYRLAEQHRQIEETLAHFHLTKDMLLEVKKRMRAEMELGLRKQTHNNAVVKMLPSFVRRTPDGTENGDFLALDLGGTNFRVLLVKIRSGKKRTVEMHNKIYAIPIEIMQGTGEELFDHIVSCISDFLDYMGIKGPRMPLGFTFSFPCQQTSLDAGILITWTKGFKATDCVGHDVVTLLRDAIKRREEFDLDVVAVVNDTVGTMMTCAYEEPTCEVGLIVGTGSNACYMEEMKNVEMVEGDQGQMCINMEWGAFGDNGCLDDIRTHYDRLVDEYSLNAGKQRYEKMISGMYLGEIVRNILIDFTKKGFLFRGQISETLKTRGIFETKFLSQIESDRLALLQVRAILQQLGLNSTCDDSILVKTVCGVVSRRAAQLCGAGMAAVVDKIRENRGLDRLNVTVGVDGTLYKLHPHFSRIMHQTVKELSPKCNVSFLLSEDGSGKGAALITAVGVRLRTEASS

Hexokinase HKDC1 = molecular target: T3, Hexokinase HKDC1 (Homo sapiens, UniProt Q2TB90); assay: SAR analysis of small molecule inhibitors of hexokinase domain containing I (HKDC1). [Related pubchem assays (depositor defined):AID493160, AID493190]; type: functional
T3 sequence (Q2TB90 whole entry): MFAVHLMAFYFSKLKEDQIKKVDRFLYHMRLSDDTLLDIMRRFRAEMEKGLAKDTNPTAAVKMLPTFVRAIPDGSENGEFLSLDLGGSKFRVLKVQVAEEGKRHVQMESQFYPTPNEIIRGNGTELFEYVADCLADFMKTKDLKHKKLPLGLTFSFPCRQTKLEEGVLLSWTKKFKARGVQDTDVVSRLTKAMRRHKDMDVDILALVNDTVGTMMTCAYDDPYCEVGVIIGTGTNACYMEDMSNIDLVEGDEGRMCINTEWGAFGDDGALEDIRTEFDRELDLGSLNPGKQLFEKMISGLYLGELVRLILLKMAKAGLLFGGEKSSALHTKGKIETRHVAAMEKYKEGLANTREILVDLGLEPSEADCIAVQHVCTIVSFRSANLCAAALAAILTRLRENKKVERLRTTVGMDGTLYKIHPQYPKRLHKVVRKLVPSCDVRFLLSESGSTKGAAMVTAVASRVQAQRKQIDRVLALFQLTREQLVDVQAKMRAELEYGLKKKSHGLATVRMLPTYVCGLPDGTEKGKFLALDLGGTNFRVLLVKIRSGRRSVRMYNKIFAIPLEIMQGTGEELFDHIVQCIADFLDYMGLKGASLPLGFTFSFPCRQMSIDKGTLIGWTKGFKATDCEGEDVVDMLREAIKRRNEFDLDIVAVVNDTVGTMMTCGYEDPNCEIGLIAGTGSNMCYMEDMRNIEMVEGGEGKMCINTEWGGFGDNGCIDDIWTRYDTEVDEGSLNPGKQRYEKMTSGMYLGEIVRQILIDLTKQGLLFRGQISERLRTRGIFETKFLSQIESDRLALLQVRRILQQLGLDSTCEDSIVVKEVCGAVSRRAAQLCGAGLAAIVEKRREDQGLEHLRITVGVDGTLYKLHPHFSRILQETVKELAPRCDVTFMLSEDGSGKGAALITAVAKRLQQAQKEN

Structure (SMILES): O=C(CSc1nc(-c2ccco2)cc(C(F)(F)F)n1)Nc1ccccc1C(F)(F)F
AC50 [1]: 23.1 µM (active) | AC50 [2]: 5.71 µM (active)

Structure (SMILES): O=C(c1cccs1)N1CCn2c1nc1ccccc12
AC50 (HeLa): 115 µM (active)

Structure (SMILES): CC(=O)Nc1ccc(S(=O)(=O)N(Cc2ccco2)Cc2cc3ccccc3nc2O)cc1
EC50 [7]: 0.00464 µM (active) | IC50 (H9c2): > 79 µM (inactive)

Results, then the compound that gave them:

IC50 (Beta-arrestin-1): 15.3 µM (inactive)
Structure (SMILES): Cc1ccc(C2Nc3cccc4cccc(c34)N2)s1

EC50 [3]: 15.3 µM (active) | EC50 [4]: 0.625 µM (active) | EC50 [5]: 0.867 µM (active) | EC50 [6]: 8.78 µM (active)
Structure (SMILES): Cc1cc(C)c(NC(=O)CC(C)(C)C)c(Cl)c1

IC50 (Hexokinase-1): > 80 µM (inactive) | IC50 (Hexokinase HKDC1): > 80 µM (inactive)
Structure (SMILES): O=c1c2ccccc2nc(/C=C/c2cccnc2)n1Cc1cccc(F)c1
